pIC50: −log10 of the molar value.
experiment: Inhibition of SREBP2 activation expressed in CHO-K1 cells co-transfected with pSRE-Luc plasmid assessed as inhibition of luciferase expression after 20 hrs by luciferase reporter gene assay

Structure (SMILES) | pIC50
CCCc1cc(-c2nc(-c3ccc(Br)cc3)cs2)ccn1 | 5.01
CCCc1cc(-c2nc(-c3ccc(NCc4ccccc4)cc3)cs2)ccn1 | 5.52
CCCc1cc(-c2nc(-c3cccc(O)c3)cs2)ccn1 | 5.02
CCCc1cc(-c2nc(-c3ccccc3OC)cs2)ccn1 | 5.49
CCCc1cc(-c2nc(-c3ccccc3O)cs2)ccn1 | 4.84
CCCc1cc(-c2nc(-c3ccc(NS(=O)(=O)c4ccc(C)cc4)cc3)cs2)ccn1 | 5.64
CCc1cc(-c2nc(-c3ccc(C)cc3)cs2)ccn1 | 5.17
CCCc1cc(-c2nc(-c3ccc(NC(C)=O)cc3)cs2)ccn1 | 5.15
CCCc1cc(-c2nc(-c3ccc(F)cc3)cs2)ccn1 | 4.91
CCCc1cc(-c2nc(-c3ccc(OC)cc3)cs2)ccn1 | 4.89
CCCc1cc(-c2nc(-c3cccc(OC)c3)cs2)ccn1 | 4.99
CCCc1cc(-c2ccc(-c3ccc(C)cc3)cc2)ccn1 | < 4.52
CCCc1cc(-c2nc(-c3ccc(NS(=O)(=O)c4cccs4)cc3)cs2)ccn1 | 6.05
Cc1ccc(-c2csc(-c3ccccc3)n2)cc1 | 4.73
CCCc1cc(-c2nc(-c3ccc(Cl)cc3)cs2)ccn1 [SMR000177579] | 4.97
Cc1ccc(-c2csc(-c3ccncc3)n2)cc1 | < 4.52
CCCc1cc(-c2nc(-c3ccc(NC(C)C)cc3)cs2)ccn1 | 5.55
CCCc1cc(-c2nc(-c3cccs3)cs2)ccn1 | 4.83
CCCc1cc(-c2nc(-c3ccc(NCC4CC4)cc3)cs2)ccn1 | 5.31
CCCc1cc(-c2nc(-c3ccc(N)cc3)cs2)ccn1 | 5.07
CCCc1cc(-c2nc(-c3ccccc3)cs2)ccn1 | 4.64
CCCc1cc(-c2nc(-c3ccc(O)cc3)cs2)ccn1 | 5.02
CCCc1cc(-c2nc(-c3ccc(OC(=O)c4ccccc4)cc3)cs2)ccn1 | 5.11
CCCc1cc(-c2nc(-c3ccc(NC(=O)OC(C)(C)C)cc3)cs2)ccn1 | 5.72
C[C@H](CCCC(C)(C)O)[C@H]1CC[C@H]2[C@@H]3CC=C4C[C@@H](O)CC[C@]4(C)[C@H]3CC[C@]12C [(1S,2R,5S,10S,11S,14R,15R)-14-[(2R)-6-hydroxy-6-methylheptan-2-yl]-2,15-dimethyltetracyclo[8.7.0.0^{2,7}.0^{11,15}]heptadec-7-en-5-ol] | 6.52
CCCc1cc(-c2nc(-c3ccc(NS(C)(=O)=O)cc3)cs2)ccn1 | 6.15
CCCc1cc(-c2nc(-c3ccc(C)cc3)cs2)ccn1 [SMR000221636] | 5.25
